Test results: PubChem BioAssay (NCI)
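All cell lines were grown in 96-well plates and treated with compound for 48 hours. GI50 = concentration required for 50% inhibition of growth. TGI marks complete inhibition of growth.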

What was measured:
Assay in all cases: NCI tumour cell line growth inhibition, 48 h
NCI-H226 lung = system: NCI-H226 lung
CAKI-1 renal = system: CAKI-1 renal
MALME-3M melanoma = system: MALME-3M melanoma
HOP-92 NSCLC = system: HOP-92 NSCLC
LOX IMVI melanoma = system: LOX IMVI melanoma
HCC-2998 colon = system: HCC-2998 colon
T-47D breast = system: T-47D breast
HCT-15 colon = system: HCT-15 colon
SNB-78 CNS = system: SNB-78 CNS
M19-MEL melanoma = system: M19-MEL melanoma

SMILES | GI50 (NCI-H226 lung) [µM] | TGI (NCI-H226 lung) [µM] | GI50 (CAKI-1 renal) [µM] | TGI (CAKI-1 renal) [µM] | GI50 (MALME-3M melanoma) [µM] | TGI (MALME-3M melanoma) [µM] | GI50 (HOP-92 NSCLC) [µM] | TGI (HOP-92 NSCLC) [µM] | GI50 (LOX IMVI melanoma) [µM] | TGI (LOX IMVI melanoma) [µM] | GI50 (HCC-2998 colon) [µM] | TGI (HCC-2998 colon) [µM] | GI50 (T-47D breast) [µM] | TGI (T-47D breast) [µM] | GI50 (HCT-15 colon) [µM] | TGI (HCT-15 colon) [µM] | TGI (SNB-78 CNS) [µM] | TGI (M19-MEL melanoma) [µM]
COC(=O)c1sc(-n2cnc3cc(OC)c(OC)cc32)cc1OCc1ccccc1C(F)(F)F | > 25 | > 25 | > 25 | > 25 | > 25 | > 25 | 4.31 | 18.1 | > 25 | > 25 | > 25 | > 25 | > 25 | > 25 | > 25 | > 25 | – | –
O=C(Nc1c[nH]c(=O)[nH]c1=O)Oc1ccccc1 | – | > 100 | – | > 100 | – | > 100 | – | > 100 | – | > 100 | – | > 100 | – | > 100 | – | > 100 | – | –
CCN(CC)c1ccc(N=Nc2ccc(-c3nc4cccnc4s3)cc2)cc1 | – | > 100 | – | > 100 | – | > 100 | – | > 100 | – | – | – | > 100 | – | – | – | – | > 100 | –
Cc1cnc(C(=O)Nc2nc3ccc(S(=O)(=O)Nc4ccc(C(C)(C)C)cc4)cc3[nH]2)cn1 | 0.723 | 7.35 | 0.544 | 16.4 | 0.59 | 14.5 | 0.553 | 7.24 | 0.79 | 13.1 | 1.46 | 10.7 | 0.592 | 20.8 | 0.304 | 3.09 | – | –
N#Cc1cnn(C(=O)c2nn(-c3ccc(Cl)cc3)cc2O)c1N | 0.349 | 7.45 | 0.259 | 1.47 | 0.926 | 13.6 | 0.405 | 27.3 | 0.434 | 12 | 0.623 | 18 | 0.294 | 19.1 | 0.338 | 13.1 | – | –
Cc1ccc2nc(CN(CCN(Cc3nc4ccc(C)cc4[nH]3)Cc3nc4ccc(C)cc4[nH]3)Cc3nc4ccc(C)cc4[nH]3)[nH]c2c1 | 1.82 | 3.21 | 1.26 | 2.51 | 1.47 | 2.89 | 1.45 | 2.89 | 1.66 | 3.03 | 1.74 | 3.18 | 1.71 | 3.12 | 1.62 | 3.01 | – | –
O=C1c2ccc3c4c(ccc(c24)C(=O)N1CCCCO)C(=O)N(CCCCO)C3=O | 3.45 | 15.5 | 2.27 | 13.6 | 0.254 | 1.02 | 3.51 | 7.98 | 1.35 | 3.58 | 1.91 | 10.5 | 2.54 | 7.26 | 1.55 | 10.5 | – | –
COc1ccc2c(c1O)[C@@]13CCCC=C1[C@@H](C2)N(C)CC3 | – | > 100 | – | > 100 | – | 3.35 | – | > 100 | – | > 100 | – | > 100 | – | > 100 | – | > 100 | – | –
COc1cc(C(=O)/C=C/c2c[nH]c3ccccc23)cc(OC)c1OC | 0.397 | 26.8 | < 0.0193 | 29.8 | 0.0381 | 18 | 0.0269 | 6.46 | 0.0508 | 16.1 | 0.0959 | 7.59 | 0.0393 | 18.4 | < 0.0187 | 19.4 | – | –
O=C(CC1(O)C(=O)Nc2ccccc21)c1cccc(O)c1 (configuration not stated) | – | > 100 | – | > 100 | – | > 100 | – | > 100 | – | > 100 | – | – | – | – | – | > 100 | > 100 | > 100
COc1cccc(NC(=O)/C(CS(=O)(=O)CCC(C(C)=O)C(C)=O)=N\NC(C)(C)C)c1 | – | > 100 | – | > 100 | – | > 100 | – | > 100 | – | > 100 | – | > 100 | – | – | – | > 100 | > 100 | –
O=C(/C=C/c1ccco1)Nc1ncc(Cc2cc(Cl)ccc2Cl)s1 | 0.581 | > 100 | 0.05 | > 100 | 0.0769 | > 100 | 6.91 | > 100 | 0.0762 | > 100 | 0.208 | > 100 | 0.255 | > 100 | 0.0463 | > 100 | – | –
Cc1ccccc1NC(=O)C(=O)C(C(=O)c1ccccc1F)C1OC(=O)c2ccccc21 (configuration not stated) | – | 14.3 | – | 50 | – | 95.1 | – | 65.8 | – | 33.6 | – | 24.8 | – | – | – | 79.5 | 80.8 | –
N#Cc1ccc2c(-c3ccnc(NC4CC4)n3)c(-c3ccc(F)cc3)nn2c1 | > 25 | > 25 | 14.6 | > 25 | > 25 | > 25 | > 25 | > 25 | > 25 | > 25 | > 25 | > 25 | > 25 | > 25 | > 25 | > 25 | – | –
CC(=O)OC1(C(C)=O)CC2(c3ccccc3)OC1(c1ccccc1)c1ccccc12 (configuration not stated) | – | 43.2 | – | – | – | > 100 | – | > 100 | – | > 100 | – | > 100 | – | – | – | > 100 | > 100 | 80.4
CCOC(=O)c1c(CN2CCCCC2)nc2ccc(Cl)cc2c1-c1ccccc1 | 20.7 | 40.4 | 24.7 | 72.3 | 25.1 | 61.9 | 15.8 | 39.9 | 20 | 44.2 | 19.1 | 35.8 | 17.1 | 49.1 | 21.4 | 47.9 | – | –
CN(C(=O)C12C3C4C1C1C2C3C41C#N)C(C)(C)C (configuration not stated) | – | > 100 | – | > 100 | – | > 100 | – | – | – | > 100 | – | > 100 | – | – | – | – | > 100 | > 100
O=C1N(c2ccc(Cl)cc2)C(=O)C2(SC=NN2Cc2ccccc2)N1c1ccc(Cl)cc1 (configuration not stated) | – | > 100 | – | – | – | > 100 | – | > 100 | – | > 100 | – | > 100 | – | – | – | – | > 100 | > 100
